The structures appear in SMILES notation. Structures can show the parent of a compound that is named as a salt. Where two headings read alike, the source gives them in different places.

For one data set, the system named is guinea pigs. In words: Citric acid aerosol method on guinea pigs (antitussive). Format: in vivo. As to conditions: orally, citric acid aerosol. Here is the method:
The animals were subjected to a 20% citric acid aerosol for 15 minutes.
The coughs were recorded by a microphone.
The products were administered intraperitoneally 20 minutes before the exposure to the aerosol.
Some derivatives were also tested orally.

A short description of data set [1]: Hygroscopicity of crystals. It is filed as physicochemical.
A short description of another data set: in vivo. As to conditions: mouse, in vivo, mice, isotonic aqueous solution. As to the method:
It is determined on mice, the products being administered orally, intraperitoneally, and intraveneously in isotonic aqueous solution.

Data set [2] in a line: Solubility characteristics. It is filed as physicochemical.
The test system of another data set is Pseudomonas aeruginosa. In words: Fungistatic/bacteriostatic effect, Pseudomonas aeruginosa. It is filed as cell-based. As to conditions: compared with S. aureus and E. coli. Here is the method: (§1) The determination of fungistatic bacteriostatic properties was carried out by two methods on four strains:
(§2) Halved serial dilutions are formed in a hemoylsis tube, in each case to a volume of 1 ml; each dilution is inoculated with 10^6 micro-organisms per ml. After 48 hours in the oven, the minimum inhibitory concentration is determined. A subculture of the negative tubes (bacteriostatic), makes it possible to note the bactericidal concentration.

A further data set concerns micro-organisms. Briefly: Bactericidal action (subculture of the negative tubes). It is filed as cell-based. As to conditions: at concentrations of 1 g percent. As to the method:
as §1, §2

The subject of another data set is Candida albicans. In words: Fungistatic/bacteriostatic effect, Candida albicans. Format: cell-based. As to conditions: compared with S. aureus and E. coli. As to the method:
as §1, §2

The next data set concerns mice. Briefly: Antalgic properties: decrease in contortions caused by phenyl benzoquinone, in mice. It is filed as in vivo. As to conditions: 150 mg/kg by mouth. As to the method: The antalgic properties with respect to a decrease in contortions caused by phenyl benzoquinone, as measured in mice, are very clear from the 150 mg/kg by mouth in the case of F 1534 (40% decrease), F 1539 (75% decrease), and F 1541 (60% decrease).

Data set [3] in a line: Local anesthesia activity. The conditions noted are these: compared with procaine.
The mark [4] stands for this setting: ip, intraperitoneal, read-out: DL 50 intraperitoneal.

With `CCC(C(=O)NCCN1CCCC1)c1ccccc1` (stereo not drawn) [F 1419, N(2'-pyrrolidino-ethyl)-α-phenyl-α-ethyl acetamide hydrochloride], the “% decrease in no. coughs in 15 mins.” value is on record as -22 with guinea pigs (50 mg/kg) and -40 with guinea pigs (100 mg/kg). In data set [1], the Hygroscopicity result was “slightly hygroscopic”. Moreover, the LD50 in the data set “in vivo” (setting [4]) came to 200 mg/kg; in the data set “in vivo” (iv, intravenous, read-out: DL 50 intravenous) it was 76 mg/kg; in the data set “in vivo” (po, oral, read-out: DL 50 oral), 660 mg/kg. The “Solubility in N-methyl pyrrolidone” value in [2] (N-methyl pyrrolidone, % soluble) was determined as 7%. Besides, the Solubility in ethanol in [2] (% soluble) was found to be 15%. In data set [2] (ether, in words), the Solubility in ether entry is recorded as “insoluble”. The “Solubility in propylene glycol” value in [2] (% soluble) is on record as 25%. In [2] (in words), the Solubility in water entry is given as “very soluble”.
Take `O=C(NCCN1CCCC1)C1c2ccccc2Oc2ccccc21` [F 1534, N(2'-pyrrolidino-ethyl)-9-xanthene carboxamide hydrochloride]: the “effect on Pseudomonas aeruginosa” value in the data set on Pseudomonas aeruginosa is reported as “more moderate but significant effect”. Further, the bactericidal action entry in the data set on micro-organisms was “real and significant”. Moreover, in the data set on Candida albicans, the “effect on Candida albicans” value was “more moderate but significant effect”. Besides, the “decrease in contortions caused by phenyl benzoquinone” value (shortened to “decrease in contortions caused”) in the data set with mice was 40%. For the same compound, in “in vivo” (setting [4]), the LD50 came to 178 mg/kg. In addition, the LD50 in the data set “in vivo” (po, oral, read-out: DL 50 oral) amounted to 750 mg/kg. Moreover, in [2] (% soluble), the Solubility in ethanol was found to be 10% and the “Solubility in propylene glycol” value is listed as 10%. Also, the Solubility in water result in data set [2] (in words) is on record as “very soluble”. In addition, in [3], the local anesthesia activity result was “high order of local anesthesia activity comparable to that of procaine”.
Consider `O=C(COc1ccc(Cl)cc1)NCCN1CCCC1` [F 1539, N(2'-pyrrolidino-ethyl)-4-chloro-phenoxy-acetamide hydrochloride], for which the “decrease in contortions caused” value in the data set on mice is given as 75%. In “in vivo” (setting [4]), the LD50 was determined as 178 mg/kg. Also, the LD50 in the data set “in vivo” (po, oral, read-out: DL 50 oral) came out at 1000 mg/kg. Further, in [2] (in words), the Solubility in ethanol entry is recorded as “soluble”, the “Solubility in propylene glycol” value is recorded as “soluble” and the Solubility in water result is recorded as “soluble”.
Take `CC(C)(Oc1ccc(Cl)cc1)C(=O)NCCN1CCCC1` [F 1541, N(2'-pyrrolidino-ethyl)-4-chloro-phenoxy-isobutyramide hydrochloride]: in the data set with mice, the “decrease in contortions caused” value amounted to 60%. In addition, the LD50 in the data set “in vivo” (setting [4]) stood at 178 mg/kg. In addition, the LD50 in “in vivo” (po, oral, read-out: DL 50 oral) was 562 mg/kg. For the same compound, in data set [2] (in words), the Solubility in ethanol entry was “Soluble”, the “Solubility in propylene glycol” value is reported as “Soluble” and the Solubility in water entry is “Soluble”. Moreover, the local anesthesia activity result in data set [3] was “high order of local anesthesia activity comparable to that of procaine”.

For the origin of these results see US4122199A, “Amides of pyrrolidinoethylamine which can be used in treatment of coughs” (Pierre Fabre S.A., priority 1976, dated 1978).
